# Patent US20050014766A1, “Use of n-(indolecarbonyl-)piperazine derivatives” (priority 2002, published 2005)
# Experiments:
# [1] = test system: mice; experiment: isolation-induced fighting behaviour in mice (aggression model); assay type: in vivo, mouse
# From the text: A typical animal model of aggression is the isolation-induced fighting behaviour in mice (Paivarinta, P., Pharmacol. Biochem. Behav., 1992; 42: 35-39; Haller, J. et al., Psychopharmacology, 1996; 126: 345-350). […] The number of bites or bite attacks can be used as a measure of the aggression.
# [2] = test system: mice; experiment: four plate test (model of acute stress anxiety); assay type: in vivo, mouse; settings: 5 minute test period
# From the text: A typical model of acute stress anxiety is the “four plate test” as described by C. Aron et al., Neuropharmacology 1971, 10: 459-469.
# The device consists of a small box whose base is composed of four metal plates. Each time the mouse moves from one plate to the next, it receives a short current pulse on the foot, thus reducing the investigative behaviour. The number of changes from one plate to the next which occur with punishment (i.e. the number of current pulses accepted by the animal) is recorded over a test period of 5 minutes.
# [3] = test system: mice; experiment: light-dark choice test (model of generalised anxiety disorders); assay type: in vivo, mouse; settings: period of 5 minutes
# Description: A typical model of generalised anxiety disorders is the “light-dark choice test” as described by J. N. Crawly, Pharmacol. Biochem Behav. 1981, 15: 695-699.
# The corresponding device for the selection of brightness or darkness consists of two boxes connected to one another, one box being darkened and the other being brightly illuminated. A mouse is placed in one of the boxes, and it is measured how much time the mouse spends in the illuminated box over a period of 5 minutes. Normal mice only go into the illuminated compartment rarely and spend almost all the time in the dark compartment.
# [4] = test system: rats; experiment: T-labyrinth learning and memory model in rats; assay type: in vivo, rat; settings: after denial of food
# From the text: In a learning and memory model in rats, the T-labyrinth method is used, in which rats, after denial of food, have to learn to find a reward in the arm of the labyrinth which is opposite the arm in which the reward was offered in the previous experiment (Moran, P. et al., Brain Res. 1992; 569:156-158).
# [5] = test system: recombinant in-bred mice (crossing of the strains C57ML/6J and DBA/2J); experiment: pre-pulse inhibition in recombinant in-bred mice with inherently poor pre-pulse inhibition; assay type: in vivo; settings: recombinant mouse strain with poor pre-pulse inhibition
# From the text: A typical animal model of schizotypical personality disorders and the prevention of schizophrenia in first-degree relatives is restricted pre-pulse inhibition. Pre-pulse inhibition is a non-species-specific phenomenon in which the normal reflex reactions to discrete sensory events are reduced if slight prior stimulation has been carried out in advance; pre-pulse inhibition can be used to assess sensomotory gating processes. In patients with schizotypical personality disorders and their first-degree relatives (in whom there is a high risk of the development of schizotypical personality disorders), the normal function of pre-pulse inhibition is disturbed (Braff, D. et al., Psychophysiology, 1978; 15:339-343; Braff, D., Arch Gen Psychiatry, 1992; 49:206-215; Bolino, F. et al., Biol Psychiatry, 1994; 36:670-679). Recombinant in-bred mice having an inherently poor pre-pulse inhibition (crossing of the strains C57ML/6J and DBA/2J) represent a corresponding animal model (McCaughran, J. A. Jr. et al., Psychopharmacology 1997; 134:131-140; McCaughran, J. A. Jr. et al., Behav. Genetics, 1999; 29:21-30.).
# [6] = test system: mice; experiment: hyperlocomotory activity induced by dizocilpine; assay type: in vivo, mouse
# From the text: Animal models of treatment-resistant schizophrenia and psychosis in tardive dyskinesia are so-called stimulant-induced psychoses (Ellison, G., Brain Res. Rev. 1994; 137:193-197). Chronic misuse of ‘dopamine agonists’, such as, for example, amphetamine or cocaine, or antagonists of N-methyl-D-aspartate (NMDA), such as, for example, ketamine, phencyclidine and dizocilpine, causes a syndrome of behavioural effects which has many features in common with the symptom complex of schizophrenia, i.e. these substances induce schizophrenia-like symptoms in healthy people and accelerate psychotic reactions in stabilised schizophrenic patients (Luby, E. D. et al., Am. Med. Assoc. Arch. Neurol. Psychiatry, 1959; 119:61-67; Lahti, A. C. et al., Neuropsychopharmacology, 1995; 13:9-19; Malhotra, A. K. et al., Neuropsychopharmacology, 1996; 14:301-307; Adler, C. M. et al., Biol. Psychiatry 1998; 43:811-816). In rodents, these stimulants cause extreme hyperlocomotory activity (Schaefer, G. J. et al., Neuropharmacology 1984; 23:909-914; Millan, M. J. et al., Eur. J. Neurosci. 1999; 11:419-432; O'Neill, M. F. et al., Psychopharmacology, 1999, 145:237-250).
# [7] = test system: monkeys; experiment: DMTS method (delayed matching to sample) in monkeys; assay type: in vivo, monkey
# From the text: Of the learning models, the DMTS method (DMTS=delayed matching to sample) in monkeys (Buccafusco, J. J. et al., Psychopharmacology, 1995; 120: 256-266; Buccafusco, J. J. et al., Drug Dev. Res., 1996; 38: 196-203; Prendergast, M. A. et al., Pharmacol. Biochem. Behav., 1997; 56: 81-87) is potentially of interest since the various aspects of learning and memory can be measured in this method. An experiment begins with the illumination of a sample key provided with one of three coloured discs. The monkeys are taught to press the illuminated sample key in order to initiate the experiment. After the delay interval, the two keys available for selection illuminate, but not the sample key. One of the two keys available for selection is offered with the colour that the sample key had before the delay interval, while the other (wrong) key available for selection has one of the two other colours. If the monkey makes the correct assignment (i.e. if it presses the key available for selection which has the same colour as the stimulus key), the response is rewarded. […] Finally, all stimulus equalisation measures were assigned to the delay duration. […]
compound,measurement,setting,value
N#Cc1c[nH]c2c(C(=O)N3CCN(CCc4ccc(F)cc4)CC3)cccc12 [(3-cyano-1H-indol-7-yl)[4-(4-fluorophenethyl)piperazin-1-yl]methanone],isolation-induced fighting behaviour,[1],reduces the isolation-induced fighting behaviour
same,number of changes with punishment,[2],increases the number of changes with punishment
same,time spent by the mice in the illuminated compartment,[3],increases the time spent by the mice in the illuminated compartment
same,learning and memory in the T-labyrinth,[4],has memory-promoting effects in the learning process and facilitates better and faster learning with a shorter performance time
same,deficits in pre-pulse inhibition,[5],significantly reduces the deficits in pre-pulse inhibition
same,hyperlocomotory activity induced by dizocilpine,[6],significantly reduces hyperlocomotory activity
same,DMTS hit rate and general aspects of working memory,[7],clearly improves the DMTS hit rate
